Measurements: paper PMC4504471, “Cilostazol Induces PGI2 Production via Activation of the Downstream Epac-1/Rap1 Signaling Cascade to Increase Intracellular Calcium by PLCε and to Activate p44/42 MAPK in Human Aortic Endothelial Cells” (PLoS ONE, 2015)

Columns and labels:
PDE3B [1] = target: T1, PDE3B (Homo sapiens, UniProt Q13370); experiment: SPR (Biacore S51), competition with Epac-1 peptides on immobilized PDE3B peptide; type: binding; details: read-out: % maximal inhibition
PDE3B [2] = target: T1, PDE3B; experiment: SPR (Biacore S51), direct binding and competition with Epac-1 peptides; cAMP rise in HAECs lost on PDE3B siRNA; details: read-out: % maximal inhibition

T1 sequence (Q13370 1-25): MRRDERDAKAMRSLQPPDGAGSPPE
T1 sequence (O95398 whole entry partner): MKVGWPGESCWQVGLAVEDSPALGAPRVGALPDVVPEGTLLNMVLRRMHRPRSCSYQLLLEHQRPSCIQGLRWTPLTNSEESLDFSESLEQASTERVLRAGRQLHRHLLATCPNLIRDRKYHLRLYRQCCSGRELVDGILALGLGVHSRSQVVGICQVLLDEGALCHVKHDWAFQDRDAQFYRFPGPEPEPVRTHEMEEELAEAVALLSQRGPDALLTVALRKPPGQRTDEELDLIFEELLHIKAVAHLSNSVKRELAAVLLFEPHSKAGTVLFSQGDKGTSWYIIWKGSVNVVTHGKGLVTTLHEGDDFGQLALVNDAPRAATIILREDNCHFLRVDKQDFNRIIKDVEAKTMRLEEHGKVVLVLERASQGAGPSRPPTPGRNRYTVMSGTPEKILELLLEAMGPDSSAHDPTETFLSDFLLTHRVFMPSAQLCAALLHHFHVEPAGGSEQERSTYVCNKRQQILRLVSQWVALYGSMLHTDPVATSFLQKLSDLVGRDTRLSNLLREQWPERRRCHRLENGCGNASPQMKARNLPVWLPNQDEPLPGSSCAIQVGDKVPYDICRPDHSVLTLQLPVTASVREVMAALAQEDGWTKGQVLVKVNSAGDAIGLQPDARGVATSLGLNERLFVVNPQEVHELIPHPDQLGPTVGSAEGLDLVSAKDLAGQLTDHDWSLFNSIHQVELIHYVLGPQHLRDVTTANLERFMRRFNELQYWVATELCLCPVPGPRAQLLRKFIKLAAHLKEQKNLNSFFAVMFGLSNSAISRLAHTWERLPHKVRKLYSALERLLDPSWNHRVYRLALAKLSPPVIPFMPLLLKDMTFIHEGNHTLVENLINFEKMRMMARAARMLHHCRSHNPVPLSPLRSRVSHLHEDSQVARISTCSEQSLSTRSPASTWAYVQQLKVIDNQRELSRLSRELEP

SMILES	Emax (PDE3B [1]) [%]	Emax (PDE3B [2]) [%]
CN(C(=O)CCCOc1ccc2[nH]c(=O)ccc2c1)C1CCCCC1 [cilostamide]	63	–
O=C1CCc2cc(OCCCCc3nnnn3C3CCCCC3)ccc2N1 [cilostazol, 6-[4-(1-cyclohexyl-1H-tetrazol-5-yl)butyloxy]-3,4-dihydroquinolin-2-(1H)-one]	–	70
Cc1[nH]c(=O)c(C#N)cc1-c1ccncc1 [milrinone]	60	–
